Assay [1] deals with W174A mutant of HP1αCSD. The assay is described as follows: 1H,15N HSQC NMR titration of W174A HP1αCSD with KAP1Hbox. It counts as binding, human. Particulars: 15N-labeled W174A HP1αCSD, 20 mM Tris pH 6.8, 150 mM NaCl, 2 mM DTT, 298 K. The protocol: (§1) Human full-length HP1α and HP1αCSD (aa 109–185 of HP1α) were cloned into a pGEX4T-1 expression vector and expressed in E. coli BL21 Rosetta (DE3) pLysS cells grown in Luria Broth or M9 minimal media supplemented with ^15NH4Cl (Sigma-Aldrich). Following induction with 0.5 mM isopropyl β-D-1-thiogalactopyranoside (IPTG) for 20 h at 16 °C, cells were harvested by centrifugation and lysed by sonication. GST-tag fusion proteins were purified on glutathione agarose 4B beads (Thermo Fisher Sci) in 50 mM Tris-HCl (pH 7.5) buffer, supplemented with 500 mM NaCl and 5 mM β-mercaptoethanol. The GST tag was cleaved with TEV (Tobacco Etch Virus) protease overnight at 4 °C. Proteins were further purified by size exclusion chromatography (SEC) and concentrated in Millipore concentrators. Mutants were generated by site-directed mutagenesis using the Stratagene QuikChange mutagenesis protocol and were purified as wild-type proteins.
(§2) NMR data were processed and analyzed with NMRPipe[54] and NMRDraw as described. Normalized chemical shift perturbations shown in Fig. 3b were calculated using the equation:2 Δδ=ΔδH^2+ΔδN/5^2 where Δδ is the change in chemical shift in parts per million (ppm).

The subject of assay [2] is I165E mutant of HP1αCSD. The assay is described as follows: 1H,15N HSQC NMR titration of I165E HP1αCSD with KAP1Hbox. It counts as binding, human. Particulars: 15N-labeled I165E HP1αCSD, 20 mM Tris pH 6.8, 150 mM NaCl, 2 mM DTT, 298 K. The protocol:
as §1, §2

For assay [3], the system named is L139E/L150E HP1αCSD. Nature of the assay: 1H,15N HSQC NMR titration of L139E/L150E HP1αCSD with KAP1Hbox. It counts as binding, human. Particulars: 15N-labeled L139E/L150E HP1αCSD, 20 mM Tris pH 6.8, 150 mM NaCl, 2 mM DTT, 298 K. The protocol:
as §1, §2

The subject of assay [4] is 147 bp Widom 601 DNA (DNA147). The assay is described as follows: EMSA. The format is binding. Particulars: for DNA binding of protein or peptide itself: 0.25 pmol/lane DNA147, 25 mM Tris-HCl pH 7.5, 150 mM NaCl, peptides without HP1α. The protocol:
as §1
The protein was expressed in E. coli BL21(DE3) RIL competent cells in Luria Broth, induced with 0.5 mM IPTG and grown for 20 h at 16 °C. The cells were harvested by centrifugation and lysed by sonication. […] The protein was eluted in 50 mM Tris-HCl (pH 7.5) buffer supplemented with 500 mM NaCl, 500 mM imidazole and 5 mM DTT. The protein was further purified by size exclusion chromatography using a HiLoad16/600 Superdex 75 column (Cytiva) and buffer containing 50 mM Tris-HCl (pH 7.5), 500 mM NaCl and 5 mM DTT. The eluted protein fractions were analyzed by SDS-PAGE. The fractions were pooled, concentrated and exchanged with buffer containing […] pH 7.5, 150 mM NaCl and 2.5 mM DTT. The His-SUMO tag was cleaved overnight at 4 °C with Ulp1 enzyme and the tag was removed using Ni-NTA beads. The purified KAP1Hbox’ was concentrated in Millipore concentrators.
The buffer containing 25 mM Tris-HCl pH 7.5, 150 mM NaCl and 2.5 mM DTT was used to make up the final reaction volume of 10 µL. The samples were incubated for 1 h on ice and then loaded on a 8% native PAGE gel and run for 2 h at 80 V in 0.5× Tris-borate-EDTA (TBE) on ice. The gels were stained with SYBR Gold (Thermo Fisher Sci) and visualized by Blue LED (UltraThin LED Illuminator-GelCompany).
Tryptophan fluorescence data are presented as average of three independent measurements ±SD. […] EMSA experiments in Fig. 4 and Supplementary Figs. 6 and 7 were performed at least twice.
In general terms: Mobility shift assays separate free from complexed probe on a gel.

Assay [5] has as its system FL HP1α. The assay is described as follows: mass photometry with KAP1Hbox (Fig. 5j). Particulars: 2:1 molar ratio HP1α:KAP1Hbox. Set-up: species or system human. As for the experimental part:
as §1
(§3) Mass photometry (MP) assays shown in Fig. 5c, j, were performed on a Refeyn Two^MP mass photometer (Refeyn Ltd, Oxford, UK) to determine oligomeric states of FL and L139E/L150E HP1α. Each sample was loaded into the sample wells of the silicon cassettes assembled onto MassGlass UC coverslips (Refeyn, Ltd.). Samples for measurements were prepared by rapid in-drop dilution and measurements were performed at room temperature in buffer (50 mM Tris pH 7.5, 150 mM NaCl, 5 mM DTT). […]

Assay [6] relates to L139E/L150E FL HP1α. The assay is described as follows: mass photometry with KAP1Hbox (Fig. 5j). More on the design: species or system human. Particulars: 2:1 molar ratio HP1α:KAP1Hbox. The protocol:
as §1, §3

For assay [7], the system named is HP1αCSD’. The assay is described as follows: NMR chemical shift perturbation of 15N-labeled HP1αCSD’. Particulars: 50 μM 15N-labeled HP1αCSD’ with 1 mM unlabeled HP1αCSD’ or 900 μM unlabeled HP1αCD; 1H,15N HSQC. The format is binding, human. The protocol:
NMR experiments for amide chemical shift assignments were collected at 310 K on an Avance Neo Bruker 800 MHz spectrometer equipped with a TXO cryo-probe optimized for ^15N detection. The HP1αCSD’ construct (aa 112–176 of HP1α) and the CD of HP1α (aa 18–75 of HP1α, HP1αCD) were purified as described. Experiments were performed in buffer containing 20 mM HEPES (90% H2O/10% D2O), pH 7.2, 75 mM KCl, 1 mM TCEP, and 0.01% NaN3. Chemical shift assignments were performed on a 400 μM uniformly ^13C/^15N-labeled HP1αCSD’ sample using standard 2D ^1H,^15N HSQC, 3D HNCACB and 3D CBCA(CO)NH experiments[56]–[58]. Data were processed with NMRPipe[54] and analyzed in NMRFAM-SPARKY[59] (Sparky). […]
Fig. 10, ^1H,^15N HSQC spectra were recorded on 50 μM ^15N-labeled HP1αCSD’ samples with and without 1 mM unlabeled HP1αCSD’ or with and without 900 μM unlabeled HP1αCD. The resonance perturbation analysis was performed using the […][60],[61] as follows:3 Δδcombined=∣ΔδH∣+α∣ΔδN∣ The ∆δcombined is the sum of the absolute chemical shift change. ∆δH is the change in the ^1H chemical shift. ∆δN is the change in the ^15N chemical shift. α (0.105) is the scaling factor calculated by using the ratio between the backbone ^1H chemical shift range and ^15N chemical shift range from the ^1H,^15N HSQC spectrum.

Assay [8] relates to endogenous KAP1 from HCT116 cells. Nature of the assay: pull-down with Strep-tagged HP1α, Western blot. The format is binding. Particulars: Strep-tagged full-length HP1α, 3 biological replicates. As for the experimental part:
For all AP experiments, HCT116 cells were seeded in 10 cm plates (~4 million cells per dish) and transfected with Strep- and Flag-tagged plasmids one-day after seeding cells. Two days post-transfection, cells were collected in PBS and lysed with passive lysis buffer (PLB: 50 mM Tris-HCl pH 7.5, 150 mM NaCl, 1 mM DTT, 1.0% NP-40, 1.5 mM MgCl2, 5% v/v glycerol, and 1X complete, Mini EDTA-free, EASYpack Protease Inhibitor [Roche, Cat# 4693159001]) by resuspending cells in PLB, vortexing briefly, nutating for 15 min at 4 °C, and centrifuging the lysate (10,000 × g, 10 min, 4 °C). Strep-Tactin superflow resin (IBA Life Sciences, Cat# 2-1208-010), was equilibrated by centrifuging beads (2000 RPM, 2 min, 4 °C), removing storage buffer, and washing three times with PLB with nutation for 5 min at 4 °C. Beads were volumed back to their original volume, and 40 µL beads were used per AP and bound for 2 h. Beads were then washed with AP Wash Buffer (50 mM Tris-HCl pH 7.5, 250 mM NaCl, 1 mM DTT, 0.2% NP-40, 1.5 mM MgCl2, and 5% v/v glycerol), and eluted with Strep-tag Elution Buffer containing D-Desthiobiotin (IBA Life Sciences, Cat# 2-1000-025).
All western blots were run on 10-12% SDS-PAGE gels and transferred on nitrocellulose membranes (Bio-Rad, Cat# 1620115) using the Bio-Rad Trans-Blot Turbo Transfer System, blocked for 1 h in 5% Milk (or BSA) with Tris-buffered saline-Tween-20 (TBST), probed with primary antibody in 5% Milk (or BSA) with TBST. Blots were exposed using either Clarity Western ECL (Bio-Rad, Cat# 1705060) or utilizing the starbright secondary channel. KAP1 and CBX5/HP1a mutants for Western blot assays were generated using QuikChange II XL Site-Directed Mutagenesis kit (Agilent, Cat# 200522) per manufacturer’s instructions. PCR amplified DNAs were transformed into E. coli BME treated XL-10 Gold provided in the kit and positive clones validated by Sanger Sequencing. […]
Tryptophan fluorescence data are presented as average of three independent measurements ±SD. […]

Assay [9] concerns I165E HP1αCSD. The assay is described as follows: NMR titration of 15N-labeled I165E HP1αCSD with unlabeled HP1αCSD. The format is binding, human. As for the experimental part: as §1, §2
The target in assay [10] is T1, HP1αCSD (Homo sapiens, UniProt P45973).
T1 construct: HP1αCSD (aa 109–185 of HP1α); GST (N, cleaved yes); made in house; host or cells: E. coli BL21 Rosetta (DE3) pLysS
T1 sequence (P45973 109-185): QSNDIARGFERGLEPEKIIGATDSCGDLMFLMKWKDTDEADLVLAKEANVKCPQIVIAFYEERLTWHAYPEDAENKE
Nature of the assay: 1H,15N HSQC NMR titration of 15N-labeled HP1αCSD with KAP1Hbox. The format is binding. Particulars: 0.1–0.2 mM 15N-labeled protein, 20 mM Tris pH 6.8, 150 mM NaCl, 2 mM DTT, 10% D2O, 298 K.
Excerpt: NMR data were processed and analyzed with NMRPipe[54] and NMRDraw as described[55].

Consider `CC(C)C[C@H](NC(=O)[C@H](CCCNC(=N)N)NC(=O)[C@H](CCC(=O)O)NC(=O)[C@H](CC(C)C)NC(=O)[C@H](CO)NC(=O)[C@@H](NC(=O)[C@H](CCCNC(=N)N)NC(=O)[C@@H]1CCCN1C(=O)[C@@H](NC(=O)[C@H](CCCCN)NC(=O)[C@@H](N)CCCNC(=N)N)C(C)C)C(C)C)C(=O)O` [KAP1Hbox], for which the “binding by CSPs in HSQC” value in assay [1] was “no CSP were observed”; in [2] it was “disrupted”; in assay [3] it was “does not disrupt the CSD-KAP1Hbox complex formation”. Moreover, the “DNA binding of protein or peptide itself” value in assay [4] (2.5 mM DTT, 1 h on ice) is “did not appreciably bind DNA”. Besides, in assay [4] (FL HP1α, tenfold molar excess of peptide, 25 mM Tris-HCl pH 7.5, 150 mM NaCl, 2.5 mM DTT, 1 h on ice, 8% native PAGE), the “effect of peptide on binding of HP1α to DNA147” value is recorded as “augmented binding of HP1α to DNA”. For the same molecule, the “effect on oligomerization of WT FL HP1α” value in assay [5] was “further increased oligomerization of WT FL HP1α”. Besides, the “KAP1Hbox-promoted oligomerization of L139E/L150E FL HP1α” value in assay [6] was “markedly decreased”.

As to “CD domain: CD of HP1α (aa 18–75 of HP1α)”, the “resonance perturbations in HP1αCSD’” value in assay [7] was “does not induce such changes”.

Turning to FL HP1α: Human full-length HP1α, the “DNA binding of protein or peptide itself” value in assay [4] (2.5 mM DTT, 1 h on ice) is on record as “forms a complex with DNA147”. Besides, in [8], the “pull-down of endogenous KAP1” value is given as “immunoprecipitated”.

Turning to “HP1αCSD: aa 109–185 of HP1α, chromoshadow domain”, the “shift of DNA band by HP1αCSD in presence or absence of KAP1Hbox” value in [4] (isolated HP1αCSD, with and without KAP1Hbox (1:10)) is “unable to shift the DNA band”. For the same molecule, the “CSPs in I165E HP1αCSD” value in assay [9] is given as “led to CSPs”. In addition, in [7], the “resonance perturbations in HP1αCSD’” value is recorded as “resonance perturbations observed”.

For the molecule “I165E HP1α: I165E mutant of full-length HP1α (dimerization interface), Strep-tagged”, the “pull-down of endogenous KAP1” value in assay [8] is listed as “not”.

Consider “V488E mutant of KAP1Hbox: V488E mutant of KAP1Hbox peptide (RKVPRESLERL)”, for which the “binding by CSPs in HSQC” value in assay [10] is “no CSP were observed”.

In the case of “W174A HP1α: W174A mutant of full-length HP1α, Strep-tagged”, the “pull-down of endogenous KAP1” value in [8] was “not”.

These data come from PMC12126490, “The HP1 box of KAP1 organizes HP1α for silencing of endogenous retroviral elements in embryonic stem cells” (Nature Communications, 2025).
